Experimental data as given in patent US11965041B2, “N-methylated cyclic peptides and their prodrugs” (TECHNISCHE UNIVERSITAET MUENCHEN, priority 2017, dated 2024).
Entries after “also recorded” stand apart in the source; their conditions may differ. Read-outs that look alike come from different tables or passages of the source. Numbered stars: 1 amine (or outer) side, 2 acyl side, 3 side chain; on linkers, the order of the positions; unused ones are H or OH. Square brackets hold non-standard residues; d marks the D form. Peptide text beside a SMILES is read from it. X3 = CCCCCCOC(=O)N=C(NCCC[C@H](C(=O)[*:2])N(C)[*:1])NC(=O)OCCCCCC; X1 = CCCCCCOC(=O)N=C(NCCC[C@@H](N[*:1])C(=O)[*:2])NC(=O)OCCCCCC; X2 = CCCCCCOC(=O)N=C(N)NCCC[C@H](N[*:1])C(=O)[*:2]; dNMeV = CN[C@@H](C(=O)O)C(C)C; NMeA = CN[C@@H](C)C(=O)O

How the values were obtained:
[1] = pH 7.4, LogD
[2] = for Papp A→B: Caco-2, Papp (AB); for Papp B→A: Caco-2, Papp (BA)
in vitro = settings: human, Caco-2, pH 7.4
[3] = Caco-2 permeability study (Examples 1, 2 and 4, Table 3); type: in vitro ADME, human; settings: for Papp A→B at 150 min, 10 μg/ml / Papp B→A at 150 min, 10 μg/ml: human; for efflux ratio: Table 3
Description: The culture growth medium consisted of DMEM supplemented with 10% heat-inactivated FBS, 1% MEM-NEAA, 2 mM 1-glutamine, 1 mM sodium pyruvate, 50,000 units Penicillin G Sodium and 50 mg Streptomycin Sulfate (Biological Industries). The medium was replaced every other day.
Cells (passage 55-60) were seeded at density of 25×10^5 cells/cm^2 on untreated culture inserts of polycarbonate membrane with 0.4 μm pores and surface area of 1.1 cm^2. Culture inserts containing Caco-2 monolayer were placed in 12 mm transwell plates (Corning). Culture medium was replaced every other day. Transepithelial Electrical Resistance (TEER) values were measured by Millicell ERS-2 System (Millipore) a week after seeding up to experiment day (21-23 days) to ensure proliferation and differentiation of the cells. When the cells were fully differentiated and TEER values became stable (200-500 Ω·cm^2). The TEER values were compared to control inserts containing only the medium.
The experiment was initiated by replacing the medium from both sides by apical (600 μl) and basolateral (1500 μl) buffers, both warmed to 37° C. The Cells were incubated with the buffers solutions for 30 min at 37° C. on a shaker (100 cycles/min). The apical buffer was replaced by apical buffer containing 10 μg/ml of the cyclic peptides of the invention. 50 μl samples were taken from the apical side immediately at the beginning of the experiment, resulting in 550 μl apical volume during the experiment.
Permeability Coefficient (Papp) for each compound was calculated from the linear plot of drug accumulated versus time, using the following equation:
Where dq/dt is steady state appearance rate of the compound on the receiver side, Co is the initial concentration of the drug on the donor side, and A is the exposed tissue surface area (1.1 cm^2).
Transport studies were performed through the Caco-2 monolayer mounted in an Ussing-type chamber set-up with continuous trans-epithelial electrical resistance (TEER) measurements to assure TEER between 800 and 1200 Sr cm^2. HBSS supplemented with 10 mM MES and adjusted to pH 6.5 were used as transport medium in the donor compartment and pH 7.4 in the acceptor compartment. The donor solution contained the test compound.
Permeability mechanism of compounds is studied by evaluating the Papp of a compound from the apical to the basolateral (A-to-B) membrane and its Papp from the basolateral to the apical membrane (B-to-A). The A-to-B assay simulates passive and transporter-mediated permeability. The B-to-A assay is essential complementary experiment indicative of the activity of P-gp. The ratio of the A-to-B and B-to A Papps (efflux ratio) is calculated to determine the permeability mechanism.

[4] = Pharmacokinetic study in rats after oral administration; type: in vivo, Wistar rats; settings: rat, oral 5 mg/kg; peptide 12 measured in plasma; 12P given as dispersed 12P SNEDDS
Description: In Vivo Studies. Male Wistar rats (Harlan, Israel), 275-300 g in weight, were used for all surgical procedures. Animals were anesthetized for the period of surgery by intraperitoneal injection of 1 mL/kg of ketamine/xylazine solution (9:1), placed on a heated surface, and maintained at 37° C. (Harvard Apparatus Inc., Holliston, MA). An indwelling cannula was placed in the right jugular vein of each animal for systemic blood sampling, by a method described before. The cannula was tunneled beneath the skin and exteriorized at the dorsal part of the neck. After completion of the surgical procedure, the animals were transferred to cages to recover overnight (12-18 h). During this recovery period, food but not water was deprived. Throughout the experiment, free access to food was available 4 h post oral administration. Animals were randomly assigned to the different experimental groups. […] Dispersed 12P SNEDDS (5 mg/kg) was administered to the animals by oral gavage (n=3). Systemic blood samples (0.35 mL) were taken at 5 min predose, 20, 40, 60, 90, 180, 240, and 360 min postdose. To prevent dehydration, equal volumes of physiological solution were administered to the rats following each withdrawal of blood sample. Plasma was separated by centrifugation (5322 g, 10 min) and stored at −20° C. pending analysis. In the 12P pharmacokinetic study, the parent peptide, 12, was analytically determined.
Pharmacokinetic Analysis. The area under the plasma concentration-time curve (AUC) was calculated by using the trapezoidal rule with extrapolation to infinity by dividing the last measured concentration by the elimination rate constant (kel). The elimination rate constant values were determined by a linear regression analysis using the last points on the logarithmic plot of the plasma concentration versus the time curve. Pharmacokinetic parameters, such Tmax, Cmax, clearance (CL), volume of distribution (V), and bioavailability, were calculated using noncompartmental analysis.
Analytical Methods. Plasma or BBMV samples were spiked with metoprolol (1.5 μg/mL) as an internal standard. ACN was added to each sample (2:1) and vortex-mixed for 1 min. The samples were then centrifuged (14 635 g, 10 min), and the supernatant was transferred to fresh glass tubes and evaporated to dryness (Vacuum Evaporation System, Labconco, Kansas City, MO, USA). Then, the glass tubes were reconstituted in 80 μL of mobile phase and centrifuged a second time (14 635 g, 10 min). The amount of the compounds was determined using an HPLC-MS Waters 2695 Separation Module, equipped with a Micromass ZQ detector. The resulting solution was injected (10 μL) into the HPLC system. The system was conditioned as follows: for parent drug peptides (including 12), a Kinetex 2.6 μm HILIC 100 Å, 100 mm×2.1 mm column (Phenomenex, Torrance, CA, USA), an isocratic mobile phase, and an acetonitrile:water:ammonium acetate buffer 50 mM (70:10:20, v/v/v) was used; and for the prodrug peptides (including 12P), a Luna (Phenomenex) 3 μm C8 100 Å, 100 mm×2.0 mm column and an isocratic mobile phase of ACN:water supplemented with 0.1% formic acid (70:30, v/v) and a flow rate of 0.2 mL/min at 25° C. was used. The limit of quantification for all of the peptides and prodrugs was 25 ng/mL.
The pharmacokinetic in-vivo study allows a further evaluation of the prodrug concept in the whole animal. The PK studies were performed in conscious Wistar male rats. An indwelling cannula was implanted in the jugular vein 24 hours before the PK experiment to allow full recovery of the animals from the surgical procedure. Animals (n=4) received either an IV bolus dose or oral dose of the investigated compound. Blood samples (with heparin, 15 U/ml) were collected at several time points for up to 6 hours post administration and was assayed by HPLC-MS method. Non-compartmental pharmacokinetic analysis was performed using WinNonlin software.

[5] = Metabolic stability in rat plasma; type: in vitro ADME; settings: 37° C., up to 90 minutes
Description: The enzymatic reactions were performed as follows: 2 mM stock solutions of the tested compounds were diluted with serum or purified brush border membrane vesicles (BBMVs) solution to a final concentration of 0.5 mM. During incubation at 37° C. samples were taken for a period of 90 minutes. The enzymatic reaction was stopped by adding 1:1 v/v of ice cold acetonitrile and centrifuge (4000 g, 10 min) before analysis. Preparation of BBMVs: The BBMVs was prepared from combined duodenum, jejunum, and upper ileum (male Wistar rats) by a Ca^++ precipitation method. Purification of the BBMVs was assayed using GGT, LAP and alkaline phosphatase as membrane enzyme markers
Peptides 12 and 12p were subjected to rat plasma and followed their degradation. Rat plasma is known to be rich with esterases.

Caco-2 cells = assay: Caco-2 bidirectional permeability with or without verapamil (Example 6)
[6] = as above; settings: human, 90 min, without verapamil; for Papp A→B at 90 min, 10 μM: Caco-2, pH 7.4, Papp (AB); for Papp B→A at 90 min, 10 μM: Caco-2, pH 7.4, Papp (BA)
human αvβ3-integrin = molecular target: T1, human αvβ3-integrin (Homo sapiens, UniProt P05106+P06756); assay: Solid-phase integrin binding assay, αvβ3
T1 construct: purchased R&D
T1 sequence (P06756 31-992 limits assumed): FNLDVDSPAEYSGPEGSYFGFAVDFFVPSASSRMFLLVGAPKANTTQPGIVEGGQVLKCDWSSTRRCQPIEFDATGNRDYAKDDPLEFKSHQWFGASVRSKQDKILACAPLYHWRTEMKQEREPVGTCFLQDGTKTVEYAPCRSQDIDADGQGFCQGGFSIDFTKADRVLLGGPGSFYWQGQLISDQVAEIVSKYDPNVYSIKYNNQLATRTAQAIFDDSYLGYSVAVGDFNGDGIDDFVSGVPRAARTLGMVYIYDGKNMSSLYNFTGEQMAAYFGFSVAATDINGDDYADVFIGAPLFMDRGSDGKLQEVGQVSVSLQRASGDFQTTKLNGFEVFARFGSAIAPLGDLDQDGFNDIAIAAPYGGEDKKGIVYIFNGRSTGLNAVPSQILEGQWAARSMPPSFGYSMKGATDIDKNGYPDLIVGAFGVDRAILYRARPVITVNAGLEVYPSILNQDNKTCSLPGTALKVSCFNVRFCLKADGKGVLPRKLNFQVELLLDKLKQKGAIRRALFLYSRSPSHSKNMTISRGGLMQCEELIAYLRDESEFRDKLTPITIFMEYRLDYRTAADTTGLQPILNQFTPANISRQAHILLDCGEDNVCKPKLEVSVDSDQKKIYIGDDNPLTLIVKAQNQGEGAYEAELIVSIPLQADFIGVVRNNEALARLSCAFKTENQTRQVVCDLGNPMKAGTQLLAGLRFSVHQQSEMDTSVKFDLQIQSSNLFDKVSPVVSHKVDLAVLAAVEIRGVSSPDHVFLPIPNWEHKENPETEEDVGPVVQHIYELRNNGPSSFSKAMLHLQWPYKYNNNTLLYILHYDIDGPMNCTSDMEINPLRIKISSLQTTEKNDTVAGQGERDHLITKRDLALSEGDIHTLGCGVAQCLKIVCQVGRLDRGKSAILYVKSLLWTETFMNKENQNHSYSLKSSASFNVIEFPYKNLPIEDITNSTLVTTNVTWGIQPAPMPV
T1 sequence (P05106 27-718 limits assumed): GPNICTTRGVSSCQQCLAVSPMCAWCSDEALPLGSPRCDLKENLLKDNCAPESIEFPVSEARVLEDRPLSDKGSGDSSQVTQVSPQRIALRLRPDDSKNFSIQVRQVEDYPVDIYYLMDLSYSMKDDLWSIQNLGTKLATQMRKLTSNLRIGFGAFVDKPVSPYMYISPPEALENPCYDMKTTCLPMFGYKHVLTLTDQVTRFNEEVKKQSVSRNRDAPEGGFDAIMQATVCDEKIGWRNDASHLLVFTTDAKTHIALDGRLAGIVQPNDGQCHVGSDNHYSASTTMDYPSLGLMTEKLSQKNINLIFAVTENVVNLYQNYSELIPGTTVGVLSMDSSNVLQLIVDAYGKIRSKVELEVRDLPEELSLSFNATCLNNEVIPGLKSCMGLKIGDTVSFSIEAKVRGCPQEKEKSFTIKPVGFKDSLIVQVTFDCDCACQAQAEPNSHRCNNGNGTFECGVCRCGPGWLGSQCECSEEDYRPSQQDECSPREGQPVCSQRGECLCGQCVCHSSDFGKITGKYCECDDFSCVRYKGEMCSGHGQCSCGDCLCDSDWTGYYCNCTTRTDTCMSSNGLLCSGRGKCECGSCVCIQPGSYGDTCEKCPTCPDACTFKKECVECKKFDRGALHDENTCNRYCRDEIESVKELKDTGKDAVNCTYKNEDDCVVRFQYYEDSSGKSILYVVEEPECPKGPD

[7] = Log D, octanol/PBS distribution coefficient; settings: for logD at 1 h: pH 7.4, LogD
[8] = pH 7.4, reported value (mean or bound)
[9] = Caco-2, Table 3, n = 3, read-out: Papp AB
[10] = Caco-2, Table 3, n = 3, read-out: Papp BA

SMILES: CCCCCCOC(=O)N=C(N)NCCC[C@@H]1NC(=O)[C@@H](C(C)C)N(C)C(=O)[C@H](C)N(C)C(=O)[C@H](C)NC(=O)[C@H](CC(=O)OC)NC(=O)CNC1=O [#29P-Hoc] (cyclo(A[NMeA][dNMeV][X2]GD(OMe)))
- logD [1, 8]: 1.85
- logD ([1]; pH 7.4, single determinations): 1.91
- permeability in the PAMPA-GIT model system: low permeability
- Papp A→B ([2]; Mean): 0.3 ×10⁻⁶ cm/s
- Papp A→B ([2]; replicate 1): 0.3 ×10⁻⁶ cm/s
- Papp A→B ([2]; replicate 2): 0.3 ×10⁻⁶ cm/s
- Papp A→B ([2]; replicate 3): 0.2 ×10⁻⁶ cm/s
- Papp B→A ([2]; Mean): 0.3 ×10⁻⁶ cm/s
- Papp B→A ([2]; replicate 1): 0.2 ×10⁻⁶ cm/s
- Papp B→A ([2]; replicate 2): 0.2 ×10⁻⁶ cm/s
- Papp B→A ([2]; replicate 3): 0.3 ×10⁻⁶ cm/s
- efflux ratio at 90 min, 10 µM (in vitro): 1

SMILES: CCCCCCOC(=O)N=C(NCCC[C@@H]1NC(=O)[C@H](C(C)C)N(C)C(=O)[C@@H](Cc2ccccc2)NC(=O)[C@H](CC(=O)OC)NC(=O)CNC1=O)NC(=O)OCCCCCC [Cil.-P, c(f*VR(Hoc)2GD)]
- logD [1, 8]: 3.95
- logD ([1]; pH 7.4, single determinations): 3.76
- Permeability, replicate 1 (PAMPA, pH 7.4): Outlier −8.1 Log10[10^−6 cm/s]
- Papp A→B ([2]; Mean): 0.3 ×10⁻⁶ cm/s
- Papp A→B ([2]; replicate 1): 0.6 ×10⁻⁶ cm/s
- Papp A→B ([2]; replicate 2): 0.2 ×10⁻⁶ cm/s
- Papp A→B ([2]; replicate 3): 0.2 ×10⁻⁶ cm/s
- Papp B→A ([2]; Mean): 0.3 ×10⁻⁶ cm/s
- Papp B→A ([2]; replicate 1): 0.4 ×10⁻⁶ cm/s
- Papp B→A ([2]; replicate 2): 0.3 ×10⁻⁶ cm/s
- Papp B→A ([2]; replicate 3): 0.3 ×10⁻⁶ cm/s
- efflux ratio at 90 min, 10 µM (in vitro): 1.1

SMILES: C[C@@H]1NC(=O)[C@H](C)N(C)C(=O)[C@H](C)NC(=O)[C@H](CC(=O)O)NC(=O)CNC(=O)[C@@H](CCCNC(=N)N)N(C)C1=O [Peptide 5, c(*rGDA*AA)]
- Papp A→B at 150 min, 10 μg/ml ([3]; Caco-2, running text, unit inferred, read-out: Caco-2 A-to-B Papp): 0.3 ×10⁻⁶ cm/s
- Papp B→A at 150 min, 10 μg/ml ([3]; Caco-2, Table 3, n = 3): 0.42 ± 0.11 ×10⁻⁶ cm/s
- Papp A→B at 150 min, 10 μg/ml [3, 9]: 0.38 ± 0.01 ×10⁻⁶ cm/s

SMILES: CCCCCCOC(=O)N=C(NCCC[C@@H]1C(=O)NCC(=O)N[C@@H](CC(=O)OC)C(=O)N[C@@H](C)C(=O)N(C)[C@@H](C)C(=O)N[C@@H](C)C(=O)N1C)NC(=O)OCCCCCC [Peptide 5P, c(*r(Hoc)2GD(OMe)A*AA)] (cyclo(A[NMeA]A[X3]GD(OMe)))
- Papp B→A [3, 10]: 22.1 ± 3.58 ×10⁻⁶ cm/s
- Papp B→A ([3]; Caco-2, running text, unit inferred, read-out: Caco-2 B-to-A Papp): 21.2 ×10⁻⁶ cm/s
- Papp A→B ([3]; Caco-2, unit inferred, read-out: Caco-2 A-to-B Papp (converted)): 0.6 ×10⁻⁶ cm/s
- efflux ratio ([3]; Caco-2): 36.7

SMILES: C[C@@H]1NC(=O)[C@H](CC(=O)O)NC(=O)CNC(=O)[C@H](CCCNC(=N)N)NC(=O)[C@@H](C)N(C)C(=O)[C@H](C)N(C)C1=O [Peptide 12, c(*aRGDA*A)]
- Papp B→A at 150 min, 10 μg/ml ([3]; Caco-2, Table 3, n = 3): 0.12 ± 0.01 ×10⁻⁶ cm/s
- Papp A→B at 150 min, 10 μg/ml [3, 9]: 0.04 ± 0.02 ×10⁻⁶ cm/s
- Kel [4]: 0.04 ± 0.005 min⁻¹
- metabolic stability in rat plasma, in words [5]: remained stable

SMILES: C[C@@H]1NC(=O)[C@H](CC(=O)O)NC(=O)CNC(=O)[C@@H](CCCNC(=N)N)NC(=O)[C@H](C)N(C)C(=O)[C@H](C)N(C)C1=O [Peptide 23, c(rGDA*A*A)]
- Papp B→A at 150 min, 10 μg/ml ([3]; Caco-2, Table 3, n = 3): 1.34 ± 0.03 ×10⁻⁶ cm/s
- Papp A→B at 150 min, 10 μg/ml [3, 9]: 0.61 ± 0.09 ×10⁻⁶ cm/s

SMILES: CCCCCCOC(=O)N=C(NCCC[C@H]1NC(=O)[C@H](C)N(C)C(=O)[C@H](C)N(C)C(=O)[C@H](C)NC(=O)[C@H](CC(=O)OC)NC(=O)CNC1=O)NC(=O)OCCCCCC [Peptide 23P, c(r(Hoc)2GD(OMe)A*A*A)] (cyclo(A[NMeA][NMeA][X1]GD(OMe)))
- Papp A→B [3, 9]: 1.77 ± 0.55 ×10⁻⁶ cm/s
- Papp B→A [3, 10]: 74.8 ± 20.4 ×10⁻⁶ cm/s
- efflux ratio ([3]; Caco-2): 42.2

SMILES: CC(C)[C@@H]1C(=O)N[C@@H](CCCNC(=N)N)C(=O)NCC(=O)N[C@@H](CC(=O)O)C(=O)N[C@@H](C)C(=O)N(C)[C@@H](C)C(=O)N1C [Peptide 29, c(*vRGDA*A)]
- Papp B→A at 150 min, 10 μg/ml ([3]; Caco-2, Table 3, n = 3): 0.15 ± 0.01 ×10⁻⁶ cm/s
- Papp A→B at 150 min, 10 μg/ml [3, 9]: 0.07 ± 0.01 ×10⁻⁶ cm/s
- Net efflux (Papp (BA) / Papp (AB)), in the presence of Verapamil (Caco-2 cells; verapamil 100 μM): 0.1
- Net efflux (Papp (BA) / Papp (AB)) (Caco-2 cells; without verapamil): 0.4
- Papp A→B at 90 min, 10 μM ([6]; Mean, 10 μM): 0.7 ×10⁻⁶ cm/s
- Papp A→B at 90 min, 10 μM ([6]; replicate 1, 10 μM): 1 ×10⁻⁶ cm/s
- Papp A→B at 90 min, 10 μM ([6]; replicate 2, 10 μM): 0.2 ×10⁻⁶ cm/s
- Papp A→B at 90 min, 10 μM ([6]; replicate 3, 10 μM): 0.9 ×10⁻⁶ cm/s
- Papp B→A at 90 min, 10 μM ([6]; Mean, 10 μM): 0.3 ×10⁻⁶ cm/s
- Papp B→A at 90 min, 10 μM ([6]; replicate 1, 10 μM): 0.3 ×10⁻⁶ cm/s
- Papp B→A at 90 min, 10 μM ([6]; replicate 2, 10 μM): 0.4 ×10⁻⁶ cm/s
- Papp B→A at 90 min, 10 μM ([6]; replicate 3, 10 μM): 0.2 ×10⁻⁶ cm/s
- affinity for αvβ3, in words (human αvβ3-integrin): subnanomolar affinity; also recorded: subnanomolar IC50
- LogD, pH 7.4, reported value (mean or bound) ([7]; octanol/PBS pH 7.4): <−1
- logD at 1 h ([7]; pH 7.4, reported value (mean or bound), octanol/PBS pH 7.4): < -1
- logD at 1 h ([7]; pH 7.4, single determinations, octanol/PBS pH 7.4, triplicate values): -1.75

SMILES: C[C@@H]1NC(=O)[C@H](CC(=O)O)NC(=O)CNC(=O)[C@H](CCCNC(=N)N)NC(=O)[C@@H](Cc2ccccc2)N(C)C(=O)[C@H](C)N(C)C1=O [Peptide 30, c(*fRGDA*A)]
- affinity for αvβ3, in words (human αvβ3-integrin): subnanomolar affinity
- IC50 (human αvβ3-integrin; Table 1): 0.6 ± 0.2 nM
